Results reported in patent US12427148B2, “Cancer treatment targeted to tumor adaptive responses to protein synthesis stress” (priority 2018, dated 2025).

Experiments:
[1] = tested on: Pten^fl/fl organoid cultures; assay: 35S methionine incorporation (newly synthesized proteins) and ATF4 expression in organoid cultures; format: cell-based, mouse; conditions: ISRIB treatment
Method: (§1) To evaluate the effects of these key oncogenes on global protein synthesis, newly synthesized proteins were assessed by incorporation of ^35S-labeled methionine in organoid cultures. Primary mouse three-dimensional organoid cultures were established to recapitulate the cellular environment of the murine prostate gland ex vivo. Organoids were derived from dissociated mouse prostate tissue containing a mixed population of luminal and basal cell types to mimic the histology observed in vivo. Western blot analysis confirmed that Myc^Tg expression and PTEN loss were evident and associated with increased GFP expression and AKT phosphorylation. […] On the contrary, it was observed that an unanticipated but significant dampening in global protein synthesis occurred in Ptenfl/fl;MycTg mice (P=0.01), despite the fact that these mice developed more aggressive PCa (FIG. 1D).
(§2) A general UPR response may promote adaptation to proteotoxic and ER stress, whereas the activation of P-eIF2α could place a direct brake on the overwhelming burden of protein synthesis that occurs during more aggressive tumorigenesis. To test this hypothesis, the organoid cultures were employed, which recapitulate the in vivo phenotype. […]

[2] = tested on: Pten^fl/fl;Myc^Tg organoid cultures; assay: 35S methionine incorporation (newly synthesized proteins) in organoid cultures; format: cell-based, mouse; conditions: Pten^fl/fl;Myc^Tg cells, ISRIB treatment
Method: as §1, §2

[3] = tested on: Pten^fl/fl;Myc^Tg mice prostate tumors; assay: Preclinical trial in mice with developed prostate tumors, MRI prostate volume; format: in vivo
Method: (§3) To evaluate the necessity of P-eIF2α for promoting tumor growth or maintenance in vivo, a preclinical trial was conducted. Mice with developed tumors were imaged by magnetic resonance imaging (MRI) to confirm a measurable baseline of prostate volume per mouse and then grouped into cohorts for either vehicle or ISRIB treatment daily over the course of 6 weeks.

[4] = tested on: Pten^fl/fl mice prostate tumors; assay: as above; format: in vivo, mouse
Method: as §3

[5] = tested on: RWPE-1 shPTEN;MYC^OE cells; assay: Apoptosis (annexin V-positive cells by flow cytometry) in engineered human prostate epithelial cells; format: cell-based; conditions: 500 nM ISRIB for 9 hours, shPTEN;MYC^OE cells relative to control samples
Method: FIGS. 4A and 4B. FIG. 4A depicts quantification of annexin V-positive cells analyzed by flow cytometry relative to control cells after treatment with DMSO or 500 nM ISRIB for 9 hours (n=3, mean±SEM) *P<0.05, t test. FIG. 4B depicts Cox proportional hazards regression results in a Forest plot of hazard ratios and 95% CI for factors associated with risk of clinical progression after surgery. Independent factors are tumor with PTEN loss/low P-eIF2α or PTEN loss/high P-eIF2α versus a reference group with normal PTEN expression; age in years; PSA in nanograms per milliliter; Gleason score>7 versus 6; and pathological stage T3-T4 versus T2 at the time of prostatectomy.
To extend these observations directly to human disease, human cell lines were created to mimic the genetic mouse models. Human RWPE-1 epithelial cells were created to stably knock down PTEN (shPTEN) with or without MYC overexpression. The combination of PTEN loss with increased MYC expression activated PERK signaling and P-eIF2α, showing that the adaptive response that we had observed in mice is also triggered in human prostate cells.

mPCa-PDX tumor = assay: Preclinical trial in patient-derived xenograft from lymph node metastasis; format: in vivo, mouse
Method: (§4) FIGS. 5A, 5B, 5C, 5D, 5E, 5F, and 5G. FIGS. 5A, 5B, and 5C depict quantification of protein expression as relative mean IF intensity normalized to adjacent stromal tissue for: FIG. 5A: benign, FIG. 5B PCa, and mPCa cell types. FIG. 5D and FIG. 5E depict Kaplan-Meier tumor survival curves for mice bearing pPCa (5D) or mPCa (5E) tumors treated with ISRIB (10 mg/kg) or vehicle (n=8, per cohort; **P=0.01, log-rank test). […] FIG. 5F depicts quantification of PDX tumors treated with vehicle or ISRIB (10 mg/kg); (n=3, ***P<0.001, t test). FIG. 5G depicts quantification of newly synthesized proteins in vivo, assessed by incorporation of OP-Puro within PDX treated with ISRIB (10 mg/kg) or vehicle (n=3 to 4 per arm, mean±SEM; *P<0.05, t test). n.s., not significant. MFI, mean fluorescence intensity.
(§5) Next, it was sought to functionally evaluate whether the UPR pathway could be targeted, specifically through P-eIF2α, in advanced human PCa. Although it is historically difficult to generate human prostate patient-derived xenograft (PDX) models, this was successfully achieved with similar characteristics to the Pten^fl/fl;Myc^Tg mice to assess the effects of ISRIB on cancer growth and mortality. In particular, two PDX models were generated: one derived from a primary tumor, herein referred to as pPCa, and one derived from a lymph node metastasis in the left internal iliac chain from the same patient, herein referred to as mPCa. […] A significant increase in P-eIF2α was observed only in the mPCa (P<0.01).
(§6) To test the therapeutic efficacy of ISRIB in human PCa, a preclinical trial was performed on the stably passaged PDX model.

pPCa-PDX tumor = assay: Preclinical trial in patient-derived xenograft from primary tumor; format: in vivo, mouse
Method: as §4, §5, §6

mPCa PDX = assay: Newly synthesized proteins in vivo by OP-Puro incorporation in PDX; design: species or system mouse; conditions: ISRIB 10 mg/kg
Method: as §4
(§7) Next, it was determined whether a metastatic PCa tumor, harboring high MYC and loss of PTEN activity in a complex genetic background of human PCa, relies on eIF2α phosphorylation as an adaptive response to restrain global protein synthesis. Therefore, newly synthesized proteins in vivo were assessed by measuring the incorporation of O-propargyl-puromycin (OP-Puro) within the primary and metastatic tumor-derived PDXs, which have low or high P-eIF2α, respectively. […] Within the area of intratumor ATF4 loss, apoptosis and decreased proliferation assessed by TUNEL and Ki67 staining of mPCa PDX was observed.

pPCa tumors = assay: as above; design: species or system mouse; conditions: ISRIB 10 mg/kg
Method: as §4, §7

mCRPC PDX = assay: Metastatic castration-resistant PCa PDX, survival and PSMA PET/CT imaging; format: in vivo, mouse
Text: In hormone-sensitive metastatic PCa, androgen deprivation therapy (ADT) remains the mainstay treatment; however, these tumors inevitably develop resistance to ADT and progress into the lethal form of metastatic castration-resistant PCa (mCRPC). Characterization of the hormone-sensitive metastatic disease has not been predictive of outcomes in the clinical setting of lethal mCRPC. To directly study the contribution of P-eIF2α to metastasis, an additional PDX (herein mCRPC PDX) was generated derived from a patient with mCRPC despite prolonged treatment with complete androgen blockage using leuprolide (ADT) and antiandrogen therapy (enzalutamide). Three weeks after implantation of the mCRPC tumor under the mouse renal capsule, tumor dissemination to the liver, distant kidney, lymph nodes, and spleen was observed.
To examine the role of P-eIF2α from the early stages of metastatic growth to late stages of dissemination, a prostate-specific membrane antigen [^68Ga-PSMA-11 PET/computed tomography (CT)] scan was used to trace the progression of very small metastases from early to late stages of dissemination, which were not visible by conventional imaging modalities such as ^18F-DG PET/CT. Prostate-specific membrane antigen (PSMA) is highly expressed on the surface of PCa cells and allows sensitive staging to evaluate therapy response in the clinical setting. […]

PERK = PERK inhibitor as described; cited from earlier work
[6] = pPCa-PDX, low P-eIF2α, ISRIB treatment

Q: Which ATF4 expression [1] does the source give for O=C(COc1ccc(Cl)cc1)NC1CCC(NC(=O)COc2ccc(Cl)cc2)CC1 (stereo not drawn) [ISRIB] here?
A: decrease

Q: What about the “protein synthesis (newly synthesized proteins)” value [1] of the same molecule?
A: not altered

Q: What about the newly synthesized proteins [2] of the same molecule?
A: marked increase

Q: What about the “tumor size by MRI” value ([3]; ISRIB-treated Pten^fl/fl;Myc^Tg mice, by 6 weeks) of the same molecule?
A: no progression in tumor size

Q: What about the toxicity ([3]; Pten^fl/fl;Myc^Tg mice, daily ISRIB treatment) of the same molecule?
A: no signs of toxicity

Q: What about the “tumor size by MRI” value ([3]; Pten^fl/fl;Myc^Tg mice, daily ISRIB, 3 weeks) of the same molecule?
A: tumor regression within 3 weeks

Q: What about the “immune cell infiltration (CD45)” value ([3]; after 3 weeks of ISRIB treatment, regardless of prostate tumor genotype) of the same molecule?
A: no significant changes

Q: What about the “increase in growth over individual baseline measurements” value ([4]; by 6 weeks) of the same molecule?
A: ~40%

Q: And the “tumor size by MRI” value ([4]; vehicle or daily ISRIB, 3 weeks)?
A: continued tumor growth

Q: And the “apoptosis (annexin V-positive cells)” value [5]?
A: marked increase in apoptosis

Q: What about the “cell death: TUNEL staining and cleaved caspase 3 expression” value (mPCa-PDX tumor; mPCa-PDX, after 9 days of ISRIB treatment) of the same molecule?
A: increased

Q: And the tumor size (mPCa-PDX tumor; mPCa-PDX, after 9 days of ISRIB treatment, P<0.01)?
A: significant tumor regression

Q: What about the survival (mPCa-PDX tumor; mice bearing metastatic tumor with high P-eIF2α, ISRIB 10 mg/kg, P<0.01) of the same molecule?
A: significantly prolonged survival

Q: What about the “effectiveness of ISRIB treatment (survival)” value (pPCa-PDX tumor; pPCa tumor, ISRIB 10 mg/kg) of the same molecule?
A: short-lived

Q: What about the cell death (pPCa-PDX tumor; [6]) of the same molecule?
A: no significant cell death

Q: And the tumor size (pPCa-PDX tumor; [6])?
A: did not show regression but stabilized with eventual tumor regrowth

Q: And the “global protein synthesis (OP-Puro incorporation)” value (mPCa PDX)?
A: marked increase

Q: What about the “global protein synthesis (OP-Puro incorporation)” value (pPCa tumors) of the same molecule?
A: no change

Q: And the survival (mCRPC PDX; mCRPC PDX mice bearing distal metastatic lesions, P=0.01)?
A: significantly prolonged survival

Q: And the “metastases at distal sites by PSMA PET/CT” value (mCRPC PDX; mCRPC PDX mice treated with ISRIB)?
A: substantial metastatic regression

Q: What about the IC50 (PERK) of the same molecule?
A: 5 nM
